In patent US7119073B2, “Peptides and their use as inhibitors of hepatitis C virus ns3 protease” (Istituto Di Ricerche Di Biologia Molecolare P. Angeletti SpA, priority 2001, dated 2006):
Like-named read-outs stand apart in the source and are kept apart here.

Molecular target: T1, NS3 protease domain complexed to a modified form of the NS4A peptide (Pep4AK) (Hepatitis C virus genotype 1b, UniProt P26663)
T1 construct: NS3 protease domain (residues 1027–1206 of the HCV polyprotein)
Assay: HCV NS3 protease domain/NS4A cofactor peptide assay (Assay B)
Format: biochemical

[1] = Table 2, NS3 protease domain/Pep4AK, read-out: Assay B
[2] = Table 1, NS3 protease domain/Pep4AK, 4AB peptide substrate, read-out: Assay B
[3] = NS3 protease domain/NS4A cofactor peptide assay, read-out: Assay B (IC50 class)
[4] = Table 4, NS3 protease domain/Pep4AK, read-out: Assay B

T1 sequence (P26663 1027-1206, other chains not shown): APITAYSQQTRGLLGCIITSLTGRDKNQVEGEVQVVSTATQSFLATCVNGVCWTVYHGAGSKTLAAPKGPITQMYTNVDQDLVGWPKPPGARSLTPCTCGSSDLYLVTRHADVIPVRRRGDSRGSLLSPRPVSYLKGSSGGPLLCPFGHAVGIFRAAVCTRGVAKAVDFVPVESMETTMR

Compound	IC50 [1] [µM]	IC50 [2] [µM]	further results
CC(C)C[C@H](NC(=O)[C@H](CCC(=O)O)NC(=O)Cc1cccc(CC(=O)O)c1)C(=O)N[C@@H](CS)C(=O)NCCc1ccc(Cl)cc1Cl [Compound 226]	< 100		
CC(C)COC(=O)NC(CCC(=O)O)C(=O)NC(CC(C)C)C(=O)NC(CS)C(=O)NCCc1cccc(Oc2ccccc2)c1 (stereo not drawn) [Compound 137]		< 100	
CC(C)C[C@H](NC(=O)[C@H](CCC(=O)O)NC(=O)NCc1ccccc1)C(=O)N[C@@H](CS)C(=O)NCCc1ccc(Cl)cc1Cl [Compound 248]	< 100		
CC(C)C[C@H](NC(=O)C1(Cc2ccsc2C(=O)O)CCc2ccccc2N1)C(=O)N[C@@H](CC(F)F)C(=O)NCCc1cccc(/C=C/C(=O)O)c1 (single isomer, unassigned) [Compound 714]			IC50 [3]: < 100 µM
CC(C)C[C@H](NC(=O)C1(Cc2cccc(C(=O)O)c2)CCc2ccccc2N1)C(=O)N[C@@H](CC(F)F)C(=O)NCCc1ccc(C(=O)O)cc1Cl (single isomer, unassigned) [Compound 712a]			IC50 [3]: < 100 µM
CC(C)C[C@H](NC(=O)[C@H](CCC(=O)O)NC(=O)C(=O)c1cccs1)C(=O)N[C@@H](CS)C(=O)NCCc1ccccc1Cl [Compound 224]	< 100		
CC(C)COC(=O)NC(CCC(=O)O)C(=O)NC(CC(C)C)C(=O)NC(CS)C(=O)NCCc1ccc(S(N)(=O)=O)cc1 (stereo not drawn) [Compound 159]		< 10	
COc1ccc(CCNC(=O)[C@H](CS)NC(=O)[C@H](CC(C)C)NC(=O)[C@H](CCC(=O)O)NC(=O)CC(C)(C)CC(=O)O)cc1 [Compound 241]	< 100		
COc1ccc(C(=O)N[C@@H](CCC(=O)O)C(=O)N[C@@H](CC(C)C)C(=O)N[C@@H](CS)C(=O)NCCc2ccccc2Cl)cc1OC [Compound 205]	< 100		
CC(C)C[C@H](NC(=O)[C@H](CCC(=O)O)NC(=O)Cc1ccccc1)C(=O)N[C@@H](CS)C(=O)NCCc1ccccc1Cl [Compound 215]	< 100		
CC(C)COC(=O)NC(CCC(=O)O)C(=O)NC(CC(C)C)C(=O)NC(CS)C(=O)NCCc1cccc(Br)c1 (stereo not drawn) [Compound 128]		< 100	
CC(C)COC(=O)NC(CCC(=O)O)C(=O)NC(CC(C)C)C(=O)NC(CS)C(=O)NCCc1ccccc1Oc1ccccc1 (stereo not drawn) [Compound 123]		< 100	
COc1ccc(CCNC(=O)[C@H](CS)NC(=O)[C@H](CC(C)C)NC(=O)[C@H](CCC(=O)O)NC(=O)Cc2cccs2)cc1 [Compound 223]	< 100		
CC(C)CC(NC(=O)C(CCC(=O)O)NC(=O)OC(C)(C)C)C(=O)NC(CC(F)F)C(=O)NCCc1ccccc1 (stereo not drawn) [Compound 105]		< 100	
CC(C)C[C@H](NC(=O)[C@H](CCC(=O)O)NC(=O)CC1CCCCC1)C(=O)N[C@@H](CS)C(=O)NCCc1ccccc1Cl [Compound 234]	< 100		
CCC[C@H](NC(=O)[C@H](CCC(=O)O)NC(=O)OCC(C)C)C(=O)N[C@@H](CS)C(=O)NCCc1ccccc1Cl [Compound 405]			IC50 [4]: < 100 µM
CC(C)COC(=O)N[C@@H](CCC(=O)O)C(=O)N1c2ccccc2C[C@H]1C(=O)N[C@@H](CC(F)F)C(=O)NCCc1ccc(C(=O)O)cc1Cl [Compound 421]			IC50 [4]: < 100 µM
CCOC(=O)/C=C/c1cccc(CCNC(=O)[C@H](CS)NC(=O)[C@H](CC(C)C)NC(=O)[C@H](CCC(=O)O)NC(=O)OCC(C)C)c1 [Compound 135]		< 100	
CC(C)C[C@H](NC(=O)[C@H](CCC(=O)O)NC(=O)c1cccc(Br)c1)C(=O)N[C@@H](CS)C(=O)NCCc1ccccc1Cl [Compound 206]	< 100		

Compound	IC50 [1] [µM]	IC50 [2] [µM]	further results
CC(C)COC(=O)NC(CCC(=O)O)C(=O)NC(CC(C)C)C(=O)NC(CS)C(=O)NCCc1cccc(O)c1 (stereo not drawn) [Compound 129]		< 100	
CC(C)C[C@H](NC(=O)[C@H](CCC(=O)O)NC(=O)c1cc2ccccc2s1)C(=O)N[C@@H](CS)C(=O)NCCc1ccccc1Cl [Compound 212]	< 100		
CC(C)CC(NC(=O)C(CCC(=O)O)NC(=O)OCc1ccccc1)C(=O)NC(CS)C(=O)NCCc1ccccc1Cl (stereo not drawn) [Compound 116]		< 100	
CC(C)C[C@H](NC(=O)[C@H](CCC(=O)O)NC(=O)c1ccc2c(c1)OCO2)C(=O)N[C@@H](CS)C(=O)NCCc1ccccc1Cl [Compound 203]	< 100		
Cc1ccccc1CCNC(=O)C(CS)NC(=O)C(CC(C)C)NC(=O)C(CCC(=O)O)NC(=O)OCC(C)C (stereo not drawn) [Compound 118]		< 100	
CC(C)COC(=O)N[C@@H](CCC(=O)O)C(=O)N[C@@H](CC(C)C)C(=O)N[C@@H](CS)C(=O)NCC(O)c1ccccc1 (mixture of isomers) [Compound 106]		< 100	
CC(C)COC(=O)N[C@@H](CCC(=O)O)C(=O)N[C@@H](CCC(=O)O)C(=O)N[C@@H](CS)C(=O)NCCc1ccccc1Cl [Compound 412]			IC50 [4]: < 100 µM
COc1ccc(CCNC(=O)C(CS)NC(=O)C(CC(C)C)NC(=O)C(CCC(=O)O)NC(=O)OCC(C)C)cc1 (stereo not drawn) [Compound 141]		< 100	
CC(C)COC(=O)N[C@@H](CCC(=O)O)C(=O)NC(CC(F)(F)F)C(=O)N[C@@H](CS)C(=O)NCCc1ccc(C(=O)O)cc1 (mixture of isomers) [Compound 403]			IC50 [4]: < 100 µM
CC(C)COC(=O)NC(CCC(=O)O)C(=O)NC(CC(C)C)C(=O)NC(CS)C(=O)NCCc1ccccc1 (stereo not drawn) [Compound 104]		< 100	
CC(C)C[C@H](NC(=O)[C@H](CCC(=O)O)NS(=O)(=O)Cc1ccccc1)C(=O)N[C@@H](CS)C(=O)NCCc1ccc(Cl)cc1Cl [Compound 256]	< 100		
CC(C)COC(=O)NC(CCC(=O)O)C(=O)NC(CC(C)C)C(=O)NC(CS)C(=O)NCCc1ccccc1Cl (stereo not drawn) [Compound 113]		< 100	
CC(C)C[C@H](NC(=O)[C@H](CCC(=O)O)NC(=O)Cc1ccccc1CC(=O)O)C(=O)N[C@@H](CS)C(=O)NCCc1ccc(Cl)cc1Cl [Compound 225]	< 10		
CC(C)COC(=O)N[C@@H](CCC(=O)O)C(=O)N[C@H](C(=O)N[C@@H](CS)C(=O)NCCc1ccccc1Cl)C1CCCC1 [Compound 411]			IC50 [4]: < 100 µM
CC(C)C[C@H](NC(=O)C1(Cc2cccc(C(=O)O)c2)Cc2ccccc2N1)C(=O)N[C@@H](CS)C(=O)NCCc1ccc(C(=O)O)cc1 (mixture of isomers) [Compound 701]			IC50 [3]: < 100 µM
CC(C)C[C@H](NC(=O)[C@H](CCC(=O)O)NC(=O)c1ccco1)C(=O)N[C@@H](CS)C(=O)NCCc1ccccc1Cl [Compound 201]	< 100		
COc1cc(CCNC(=O)C(CS)NC(=O)C(CC(C)C)NC(=O)C(CCC(=O)O)NC(=O)OCC(C)C)ccc1O (stereo not drawn) [Compound 175]		< 100	
CC(C)C[C@H](NC(=O)[C@H](CCC(=O)O)NC(=O)/C=C/c1ccc([N+](=O)[O-])cc1)C(=O)N[C@@H](CS)C(=O)NCCc1ccccc1Cl [Compound 218]	< 100		
CC(C)COC(=O)N[C@@H](CCC(=O)O)C(=O)N[C@@H](CC(C)C)C(=O)N[C@@H](CS)C(=O)NCCc1cccc(/C=C/C(=O)O)c1 [Compound 134]		< 10	

Compound	IC50 [1] [µM]	IC50 [2] [µM]	further results
CC(C)COC(=O)NC(CCC(=O)O)C(=O)NC(CC(C)C)C(=O)NC(CS)C(=O)NCCc1ccccc1F (stereo not drawn) [Compound 112]		< 100	
CC(C)COC(=O)NC(CCC(=O)O)C(=O)NC(CC(C)C)C(=O)NC(CS)C(=O)NCCc1ccccc1C(F)(F)F (stereo not drawn) [Compound 121]		< 100	
CC(C)COC(=O)NC(CCC(=O)O)C(=O)NC(CC(C)C)C(=O)NC(CS)C(=O)NCCc1cccc(Cl)c1 (stereo not drawn) [Compound 127]		< 100	
COc1ccc(CCNC(=O)[C@H](CS)NC(=O)[C@H](CC(C)C)NC(=O)[C@H](CCC(=O)O)NS(=O)(=O)c2ccccc2)cc1 [Compound 250]	< 100		
CC(C)COC(=O)N[C@@H](CCC(=O)O)C(=O)N[C@@H](CC(C)C)C(=O)N[C@@H](CS)C(=O)NCCc1ccc(/C=C/C(=O)O)cc1 [Compound 158]		< 10	
CCOC(=O)CNc1cccc(CCNC(=O)C(CC(F)F)NC(=O)C(CC(C)C)NC(=O)c2ccccc2-c2ccccc2C(=O)O)c1 (stereo not drawn) [Compound 721]			IC50 [3]: < 100 µM
CCCCc1ccnc(C(=O)NS(=O)(=O)c2ccc(CCNC(=O)[C@H](CS)NC(=O)[C@H](CC(C)C)NC(=O)[C@H](CCC(=O)O)NC(=O)OCC(C)C)cc2)c1 [Compound 163]		< 10	
CC(C)C[C@H](NC(=O)[C@@H](NC(=O)OCc1ccc(C(=O)O)cc1)C(C)C)C(=O)N[C@@H](CS)C(=O)NCCc1ccccc1 [Compound 102]		< 100	
COc1ccc(CCNC(=O)[C@H](CS)NC(=O)[C@H](CC(C)C)NC(=O)[C@H](CCC(=O)O)NC(=O)c2ccc(C#N)cc2)cc1 [Compound 207]	< 100		
COc1ccc(CCNC(=O)[C@H](CS)NC(=O)[C@H](CC(C)C)NC(=O)[C@H](CCC(=O)O)NC(=O)c2cc3ccccc3s2)cc1 [Compound 213]	< 100		
CC(C)COC(=O)NC(CCC(=O)O)C(=O)NC(CC(C)C)C(=O)NC(CS)C(=O)NCCc1ccc2ccccc2c1 (stereo not drawn) [Compound 192]		< 100	
CC(C)COC(=O)N[C@@H](CCC(=O)O)C(=O)N1C2CCCCC2C[C@H]1C(=O)N[C@@H](CS)C(=O)NCCc1ccccc1Cl (stereo partly drawn) [Compound 420]			IC50 [4]: < 10 µM
CC(C)CC(NC(=O)c1ccccc1-c1ccccc1C(=O)O)C(=O)NC(CC(F)F)C(=O)NCCc1c(F)cc(C(=O)O)cc1F (stereo not drawn) [Compound 718]			IC50 [3]: < 100 µM
CC(C)CC(NC(=O)C(NC(=O)OC1CCS(=O)(=O)CC1)C(C)C)C(=O)NC(CS)C(=O)NCCc1ccc(C(=O)O)cc1Cl (stereo not drawn) [Compound 182]		< 100	
CC(C)C[C@H](NC(=O)[C@H](CCC(=O)O)NC(=O)CC(C)(C)CC(=O)O)C(=O)N[C@@H](CS)C(=O)NCCc1ccccc1Cl [Compound 240]	< 100		
CC(C)COC(=O)N[C@@H](CCC(=O)O)C(=O)N[C@@H](CC1CCCCC1)C(=O)N[C@@H](CS)C(=O)NCCc1ccc(C(=O)O)cc1 [Compound 409]			IC50 [4]: < 10 µM
CC(C)COC(=O)NC(CCC(=O)O)C(=O)NC(CC(C)C)C(=O)NC(CS)C(=O)NCCc1ccc(C(F)(F)F)cc1 (stereo not drawn) [Compound 149]		< 100	
CC(C)C[C@H](NC(=O)C1Cc2ccccc2N1)C(=O)N[C@@H](CC(F)F)C(=O)NCCc1c(F)cc(C(=O)O)cc1F (stereo partly drawn) [Compound 709]			IC50 [3]: < 100 µM
CC(C)COC(=O)NC(CCC(=O)O)C(=O)NC(CC(C)C)C(=O)NC(CS)C(=O)NCCc1cccnc1 (stereo not drawn) [Compound 193]		< 100	
